Experimental data published in ChEMBL document CHEMBL1151184, “New diterpenes from Croton insularis” (J Nat Prod, 2004).

Experiments:
HeLa = experiment: Cytotoxicity against human HeLa cells by MTT assay; assay type: functional, cell-based
L1210 = experiment: Cytotoxicity against mouse L1210 cells by MTT assay; assay type: functional, cell-based

SMILES	IC50 (HeLa)	IC50 (L1210)
CC1(C)[C@@H](O)CC[C@@]2(C)[C@@H]3C[C@@H]4[C@@H]5C[C@@]3(CC[C@@H]12)C[C@@]45C	> 200 µM	133 µM
C[C@@]12CCC[C@@](C)(C(=O)O)[C@@H]1CC[C@@]13C[C@H]4[C@@H](C[C@H]12)[C@]4(C)C3	99 µM	99 µM
CC1(C)C(=O)CC[C@@]2(C)[C@@H]3C[C@@H]4[C@@H]5C[C@@]3(CC[C@@H]12)C[C@@]45C	131 µM	103 µM
C[C@]1(CO)[C@@H]2CC[C@@]34C[C@H]5[C@@H](C[C@H]3[C@]2(C)CC[C@H]1O)[C@]5(C)C4	97 µM	91 µM
C[C@@H]1CC[C@]2(C)[C@H](CC[C@@H](O)[C@]2(C)O)[C@@]1(C)CC(=O)c1ccoc1	> 200 µM	98 µM
C[C@@H]1CC[C@]2(C)[C@H](CC[C@@H](O)[C@]2(C)O)[C@@]12C=C(c1ccoc1)OC2 [CROTINSULARIN]	148 µM	128 µM
